# Measured values published in US20100278847A1, “MUTUALLY SUPPRESSIVE GENE/INHIBITOR COMBINATIONS FOR NON-ANTIBIOTIC SELECTION OF RECOMBINANT STRAINS” (priority 2007, published 2010).
# Experiments:
# DH5α = experiment: Growth rate from exponential phase (OD550 over time); assay type: cell-based, E. coli; conditions: media containing 0-2 μM triclosan
# Protocol: Growth rate was calculated from the exponential phase of growth, which was monitored as increased OD550 over time by the VERSAmax spectrophotometer (Molecular Devices). An overnight culture (16 h), standardized by OD550 to yield approximately 7×10^5 cfu/ml, was grown in 200 μl volumes per well in a 96-well plate for 24 h with agitation for 5 s every 5 min, when OD550 readings were taken. Triclosan dissolved in DMSO was added to give 0-2 μM Triclosan and 1% DMSO final concentrations.
# [1] = cited from earlier work
# DH5α/pFab = experiment: Cell viability, SYTOX green staining flow cytometry; assay type: cell-based, E. coli; conditions: 0.5-2 μM triclosan, overnight culture
# Protocol: DH5α/pFab were grown overnight in the absence or presence of 0.5-2 μM triclosan and subjected to SYTOX green staining flow cytometry, as previously described (Roth et al. 1997). DH5α/pUC19 was included as a control for green fluorescence of live and heat-treated dead cells. Samples were excited with a 488 nm air-cooled argon ion laser in the CyFlow SL flow cytometer (Partec GmbH). Threshold settings were enabled on forward scatter to exclude cell debris. The forward and side scatter dot plot was used to identify and gate cell populations. Fluorescence was measured at 520 nm Viable and dead cell populations were counted using the Partec FloMax software version 2.4e.
compound,measurement,setting,value
Oc1cc(Cl)ccc1Oc1ccc(Cl)cc1Cl [triclosan],Triclosan concentration at which growth rates of pUCFA and pFab clones were highest,DH5α,1 μM
same,Solubility in water,[1],poor solubility in water
same,Proportion of green fluorescent (dead) cells in DH5α/pFab culture,DH5α/pFab,decreased with increasing triclosan concentrations
